Results: patent US6380134B1, “N-pyridyl herbicide compounds” (Syngenta Crop Protection, Inc., priority 1998, dated 2002)
Several values for one entry are separate records, joined by “and”; a condition that tells them apart may be missing. Equal entries are not always repeated.

Columns and labels:
[1] = test system: Ipomoea; assay: Herbicidal action before plant emergence (pre-emergence action); type: in vivo; parameters: key: 1=complete damage; 9=no effect; Score figures of 1 to 4 (in particular 1 to 3) signify a good to very good herbicidal action; settings: 2000 g a.i./ha sprayed immediately after sowing; evaluated after 3 weeks; nine-level key (1=complete damage, 9=no effect)
Text: (§1) Monocotyledonous and dicotyledonous test plants are sown in standard soil in plastic pots. Immediately after sowing, the test substances are sprayed on as aqueous suspensions (prepared from a 25% strength wettable powder (Example F3, b) in accordance with WO 97/34485) or as emulsions (prepared from a 25% strength emulsion concentrate (Example F1, c) in accordance with WO 97/34485), corresponding to a dosage of 2 kg of a.i./ha (500 l of water/ha). The test plants are subsequently grown in the greenhouse under optimal conditions. After a test period of 3 weeks, the experiment is evaluated using a nine-level key (1=complete damage, 9=no effect). Score figures of 1 to 4 (in particular 1 to 3) signify a good to very good herbicidal action.
(§2) Test plants: Lolium, Setaria, Sinapis, Solanum, Stellaria, Ipomea.

[2] = test system: Lolium; assay: as above; type: in vivo; parameters: key: 1=complete damage; 9=no effect; Score figures of 1 to 4 (in particular 1 to 3) signify a good to very good herbicidal action; settings: 2000 g a.i./ha sprayed immediately after sowing; evaluated after 3 weeks; nine-level key (1=complete damage, 9=no effect)
Text: as §1, §2

[3] = test system: Setaria; assay: as above; type: in vivo; parameters: key: 1=complete damage; 9=no effect; Score figures of 1 to 4 (in particular 1 to 3) signify a good to very good herbicidal action; settings: 2000 g a.i./ha sprayed immediately after sowing; evaluated after 3 weeks; nine-level key (1=complete damage, 9=no effect)
Text: as §1, §2

[4] = test system: Sinapis; assay: as above; type: in vivo; parameters: key: 1=complete damage; 9=no effect; Score figures of 1 to 4 (in particular 1 to 3) signify a good to very good herbicidal action; settings: 2000 g a.i./ha sprayed immediately after sowing; evaluated after 3 weeks; nine-level key (1=complete damage, 9=no effect)
Text: as §1, §2

[5] = test system: Solanum; assay: as above; type: in vivo; parameters: key: 1=complete damage; 9=no effect; Score figures of 1 to 4 (in particular 1 to 3) signify a good to very good herbicidal action; settings: 2000 g a.i./ha sprayed immediately after sowing; evaluated after 3 weeks; nine-level key (1=complete damage, 9=no effect)
Text: as §1, §2

[6] = test system: Stellaria; assay: as above; type: in vivo; parameters: key: 1=complete damage; 9=no effect; Score figures of 1 to 4 (in particular 1 to 3) signify a good to very good herbicidal action; settings: 2000 g a.i./ha sprayed immediately after sowing; evaluated after 3 weeks; nine-level key (1=complete damage, 9=no effect)
Text: as §1, §2

[7] = test system: Ipomoea; assay: Post-emergence herbicidal action; type: in vivo; parameters: key: 1=complete damage; 9=no effect; Score figures of 1 to 4 (in particular 1 to 3) signify a good to very good herbicidal action; settings: dose 2000 g a.i./ha; sprayed at 4- to 6-leaf stage; evaluated after approximately 18 days; nine-level key (1=complete damage, 9=no effect)
Experimental: (§3) Monocotyledonous and dicotyledonous test plants are grown in the greenhouse in plastic pots containing standard soil and, in the 4- to 6-leaf stage, sprayed with an aqueous suspension of the test substances of the formula I, prepared from a 25% strength wettable powder (Example F3, b) in accordance with WO 97/34485) or with an emulsion of the test substances of the formula I, prepared from a 25% strength emulsion concentrate (Example F1, c) in accordance with WO 97/34485), corresponding to a dosage of 2 kg/ a.i./ha (500 l of water/ha). The test plants are subsequently grown on in the greenhouse under optimal conditions. After a test period of approximately 18 days, the experiment is evaluated using a nine-level key (1=complete damage, 9=no effect). Score figures of 1 to 4 (in particular 1 to 3) signify a good to very good herbicidal action.
as §2

[8] = test system: Lolium; assay: Post-emergence herbicidal action; type: in vivo; parameters: key: 1=complete damage; 9=no effect; Score figures of 1 to 4 (in particular 1 to 3) signify a good to very good herbicidal action; settings: dose 2000 g a.i./ha; sprayed at 4- to 6-leaf stage; evaluated after approximately 18 days; nine-level key (1=complete damage, 9=no effect)
Experimental: as §3, §2

[9] = test system: Setaria; assay: Post-emergence herbicidal action; type: in vivo; parameters: key: 1=complete damage; 9=no effect; Score figures of 1 to 4 (in particular 1 to 3) signify a good to very good herbicidal action; settings: dose 2000 g a.i./ha; sprayed at 4- to 6-leaf stage; evaluated after approximately 18 days; nine-level key (1=complete damage, 9=no effect)
Experimental: as §3, §2

[10] = test system: Sinapis; assay: Post-emergence herbicidal action; type: in vivo; parameters: key: 1=complete damage; 9=no effect; Score figures of 1 to 4 (in particular 1 to 3) signify a good to very good herbicidal action; settings: dose 2000 g a.i./ha; sprayed at 4- to 6-leaf stage; evaluated after approximately 18 days; nine-level key (1=complete damage, 9=no effect)
Experimental: as §3, §2

[11] = test system: Solanum; assay: Post-emergence herbicidal action; type: in vivo; parameters: key: 1=complete damage; 9=no effect; Score figures of 1 to 4 (in particular 1 to 3) signify a good to very good herbicidal action; settings: dose 2000 g a.i./ha; sprayed at 4- to 6-leaf stage; evaluated after approximately 18 days; nine-level key (1=complete damage, 9=no effect)
Experimental: as §3, §2

[12] = test system: Stellaria; assay: Post-emergence herbicidal action; type: in vivo; parameters: key: 1=complete damage; 9=no effect; Score figures of 1 to 4 (in particular 1 to 3) signify a good to very good herbicidal action; settings: dose 2000 g a.i./ha; sprayed at 4- to 6-leaf stage; evaluated after approximately 18 days; nine-level key (1=complete damage, 9=no effect)
Experimental: as §3, §2

Compound | Pre-emergence action, score, test plant Ipomoea [1] | Pre-emergence action, score, test plant Lolium [2] | Pre-emergence action, score, test plant Setaria [3] | Pre-emergence action, score, test plant Sinapis [4] | Pre-emergence action, score, test plant Solanum [5] | Pre-emergence action, score, test plant Stellaria [6] | Post-emergence action, score, Ipomoea [7] | Post-emergence action, score, Lolium [8] | Post-emergence action, score, Setaria [9] | Post-emergence action, score, Sinapis [10] | Post-emergence action, score, Solanum [11] | Post-emergence action, score, Stellaria [12] | melting point
C#CCOc1nc(-n2c(=O)cc(C(F)(F)F)n(C)c2=O)c(F)cc1Cl [1.022, 1-(2-propargyloxy-3-chloro-5-fluoropyridine-6-yl)-3-methyl-4-trifluoromethylpyrimidine-2,6-dione] | 1 | 1 | 1 | 1 | 1 | 1 | 1 | 1 | 1 | 1 | 1 | 1 | 121 to 122 °C and 119 to 121 °C
CCOc1nc(-n2c(=O)cc(C(F)(F)F)n(C)c2=O)c(F)cc1Cl [1.017] | 1 | 1 | 1 | 1 | 1 | 1 | 1 | 1 | 1 | 1 | 1 | 1 | 
CCOC(=O)COc1nc(-n2c(=O)cc(C(F)(F)F)n(C)c2=O)c(F)cc1Cl [1.047] | 1 | 5 | 1 | 1 | 1 | 7 | 1 | 3 | 1 | 1 | 1 | 4 | 
N#Cc1cc(F)c(N2C(=O)C3CCCCN3C2=O)nc1Cl (stereo not drawn) [Example H8, 2-(3-fluoro-6-chloro-5-cyano-2-pyridyl)tetrahydroimidazo[1,5-a]pyridine-1,3-dione] |  |  |  |  |  |  |  |  |  |  |  |  | 192 to 193 °C
COC(=O)C(C)Oc1nc(-n2c(=O)cc(C(F)(F)F)n(C)c2=O)c(F)cc1Cl (stereo not drawn) [1.048] | 1 | 1 | 1 | 1 | 1 | 1 | 1 | 1 | 1 | 1 | 1 | 1 | 
Cn1c(C(F)(F)F)cc(=O)n(-c2nc(O)c(Cl)cc2F)c1=O [1.002, 1-(2-hydroxy-3-chloro-5-fluoropyridine-6-yl)-3-methyl-4-trifluoromethylpyrimidine-2,6-dione] | 1 | 7 | 1 | 1 | 1 | 5 | 1 | 6 | 5 | 2 | 1 | 5 | 200 to 202 °C
